Data taken from patent US20250152688A1 (priority 2021, published 2025).
Entries after “also recorded” stand apart in the source; their conditions may differ. Read-outs that look alike come from different tables or passages of the source.

What was measured:
[1] = tested on: T-cell clones derived from patients that responded to UV1 vaccination; assay type: cell-based, human; details: T-cell clones from UV1 responders tested with overlapping 14-mer peptides
[2] = tested on: peripheral blood mononuclear cells (PMBCs); assay type: cell-based, human; details: for Total of positive patients over peptides sharing at least 8 amino acids with the polypeptide: GV1001 (n=4) + DC (n=3) vaccinated patients
[3] = tested on: peripheral blood mononuclear cells (PBMCs); assay type: in vivo, human; details: for Patients with immune response against the peptide / UV1 mix: 51 evaluable patients vaccinated with UV1 (NSCLC, prostate cancer, malignant melanoma); for Number of patients that recognised this one peptide only / Responding patients / evaluable patients: patients vaccinated with UV1; for Responding patients / evaluable patients: response against the labelled peptide / mix
[4] = tested on: HLA-A2/DR1 transgenic mice; assay type: in vivo; details: for Immunogenicity in HLA-A2/DR1 transgenic mice (conclusion): 16.4 nmol peptide with standard adjuvant; for Peptides above the threshold (T cell responses against individual peptides): 16.4 nmol peptide, female HLA-A2/DR1 mice (n=4), cut off = cells alone; for Peptide recognition by individual vaccinated mice (ELISpot): 16.4 nmol, mice M9-M12 GV1001 group, M13-M16 UV34 group
[5] = tested on: transgenic HLA-A2/HLA-DR1 animals; assay type: in vivo, mice; details: Group 1: MTTE-OVA then CD29 60 μg (4.1 nmol); Group 2: UV34 14 μg (4.1 nmol) in IFA; prime-boost-boost; p=0.0286
[6] = tested on: B6.129S2-H2-Ab1tm1GruTg(HLADRA/H2-Ea,HLA-DRB1*0401/H2-Eb)1Kito strain mice; assay type: in vivo; details: HLA-DR4 mice
[7] = tested on: J76 cells transfected with UT1, a TCR specific for SEQ ID NO: 1; assay type: cell-based, human; details: 0.5, 1.5 and 5 μM (conjugates in second experiment 0.5, 1.5 and 3 μM); 24 hours; EBV cells as APC
C57BL/6 mice = assay type: in vivo; details: 1 nmol SC 3 times, 1 week intervals, blood 9 days post last administration
vaccinated individuals = details: reported in Bernhardt 2006, Inderberg-Suso 2012, Kyte 2011; cited from earlier work
[8] = Vaccination GV1001 + DC (n = 4 + 3)

ARRPGLLGASVLGL (listed as Homo sapiens) [SEQ ID NO: 22]
HLA Class II allele, T-cell clone recognising the peptide [1]: DQ7, clone 8,10

TSRLRFIPKPDGLRP [Conjugate 730]
No. of positive patients [2]: 5
T-cell responses to the individual peptide (patients), counted for GV1001 ([2]; Vaccination DC (n = 3)): 2
T-cell responses to the individual peptide (patients), counted for SEQ ID NO: 116 ([2]; Vaccination DC (n = 3)): 2
T-cell responses to the individual peptide (patients), counted for GV1001 ([2]; Vaccination GV1001 (n = 4)): 3
T-cell responses to the individual peptide (patients), counted for SEQ ID NO: 116 ([2]; Vaccination GV1001 (n = 4)): 3
T-cell responses to the individual peptide (patients), counted for GV1001 [2, 8]: 5
T-cell responses to the individual peptide (patients), counted for SEQ ID NO: 116 [2, 8]: 5

LYFVKVDVTGAYDTI [Conjugate 727]
No. of positive patients [2]: 5
T-cell responses to the individual peptide (patients), counted for SEQ ID NO: 118 ([2]; Vaccination DC (n = 3)): 2
T-cell responses to the individual peptide (patients), counted for SEQ ID NO: 118 ([2]; Vaccination GV1001 (n = 4)): 3
T-cell responses to the individual peptide (patients), counted for SEQ ID NO: 118 [2, 8]: 5

RTFVLRVRAQDPPPE [p725]
Patients with immune response against the peptide / UV1 mix [3]: 39%
Number of patients that recognised this one peptide only [3]: one
Responding patients / evaluable patients [3]: (20/51)

ERARRPGLLGASVL (listed as Homo sapiens) [SEQ ID NO: 20]
HLA Class II allele, T-cell clone recognising the peptide [1]: DQ7, clone 8,10

RARRPGLLGASVLG (listed as Homo sapiens) [SEQ ID NO: 21]
HLA Class II allele, T-cell clone recognising the peptide [1]: DQ7, clone 8,10

FIPKPDGLRPIVNMD [Conjugate 715]
No. of positive patients [2]: 3
T-cell responses to the individual peptide (patients), counted for SEQ ID NO: 116 ([2]; Vaccination DC (n = 3)): 2
T-cell responses to the individual peptide (patients), counted for SEQ ID NO: 116 ([2]; Vaccination GV1001 (n = 4)): 1
T-cell responses to the individual peptide (patients), counted for SEQ ID NO: 116 [2, 8]: 3

LSEAEVRQHREARPALLTSRLRFIPKPDGL [SEQ ID NO: 116]
Total of positive patients over peptides sharing at least 8 amino acids with the polypeptide [2]: Total = 20
SUM of T-cell responses to peptides embedded in the polypeptide ([2]; Vaccination DC (n = 3)): 8
SUM of T-cell responses to peptides embedded in the polypeptide ([2]; Vaccination GV1001 (n = 4)): 12
SUM of T-cell responses to peptides embedded in the polypeptide [2, 8]: 20
Immunogenicity in HLA-A2/DR1 transgenic mice (conclusion) [4]: highly immunogenic
Peptides above the threshold (T cell responses against individual peptides) [4]: UV36, UV57, UV58, UV59, UV60, UV64 and UV66
Peptide recognition by individual vaccinated mice (ELISpot) [4]: Mouse M16 displayed marginal immune responses against UV57; also recorded: Mouse M15 responded somewhat more broadly and recognized UV58; also recorded: Cells from this mouse also responded to UV59; also recorded: Peptide UV60 was also recognized; also recorded: They both recognized UV36, UV57, UV58, UV64 and UV66; also recorded: also recognized UV59 and UV60
Anti-MTTE antibody titers at the end of the experiment [5]: not able to mount an antibody response to the MTTE sequence

ELYFVKVDVEGAYDT [Conjugate 726]
No. of positive patients [2]: 2
T-cell responses to the individual peptide (patients), counted for SEQ ID NO: 118 ([2]; Vaccination DC (n = 3)): 1
T-cell responses to the individual peptide (patients), counted for SEQ ID NO: 118 ([2]; Vaccination GV1001 (n = 4)): 1
T-cell responses to the individual peptide (patients), counted for SEQ ID NO: 118 [2, 8]: 2

ALFSVLNYERARRPGLLGASVLGLDDIHRA [p719-20]
Patients with immune response against the peptide / UV1 mix [3]: 65%
Patients with immune response against the peptide / UV1 mix ([3]; listed as SEQ ID NO. 1): 65%
Percentage of patients carrying the allele who responded to SEQ ID NO. 1 ([3]; HLA-DPB1*01:01): 14%
Percentage of patients carrying the allele who responded to SEQ ID NO. 1 ([3]; HLA-DPB1*04:01): 64%
Percentage of patients carrying the allele who responded to SEQ ID NO. 1 ([3]; HLA-DPB1*04:02): 71%
Percentage of patients carrying the allele who responded to SEQ ID NO. 1 ([3]; HLA-DQB1*03:02): 46%
Percentage of patients carrying the allele who responded to SEQ ID NO. 1 ([3]; HLA-DQB1*05:01): 67%
Percentage of patients carrying the allele who responded to SEQ ID NO. 1 ([3]; HLA-DQB1*06:02): 72%
Percentage of patients carrying the allele who responded to SEQ ID NO. 1 ([3]; HLA-DRB1*04:01): 50%
Percentage of patients carrying the allele who responded to SEQ ID NO. 1 ([3]; HLA-DRB1*07:01): 90%
Percentage of patients carrying the allele who responded to SEQ ID NO. 1 ([3]; HLA-DRB1*15:01): 89%
Responders in 7 of the 9 most common HLA class II haplotypes ([3]; UV1-vaccinated patients): > 50%
Number of patients that recognised this one peptide only [3]: 13
Responding patients / evaluable patients [3]: (33/51)
HLA Class II allele, T-cell clone recognising the peptide [1]: All clones
Responding mice ([6]; 22 nmol dose): all mice appear to respond
IFN-γ ELISpot spots on restimulation with SEQ ID NO: 1 ([6]; 30 μg (9 nmol) with CpG 1826 25 μg in IFA, prime boost, n=8): significant increase in the number of spots compared to cells alone
GFP-expressing T-cells specific for SEQ ID NO: 1 (T-cell activation) [7]: activate the T cells equally well

PGLLGASVLGLDDI (listed as Homo sapiens) [SEQ ID NO: 25]
HLA Class II allele, T-cell clone recognising the peptide [1]: DQ2, clone 52

LLGASVLGLDDIHR (listed as Homo sapiens) [SEQ ID NO: 27]
HLA Class II allele, T-cell clone recognising the peptide [1]: DQ2, clone 52

ALFSVLNYERARRP (listed as Homo sapiens) [SEQ ID NO: 12]
HLA Class II allele, T-cell clone recognising the peptide [1]: DR12, clone 44, 38, 6

ARWWWMHHNMDLIGGAKxVAAWTLKAu [HY-PADRE]
Anti-MTTE IgG1 antibody titres (ELISA) (C57BL/6 mice): no antibodies to the MTTE sequence

LYFVKVDVTGAYDTIPQDRLTRVIASIIKP (listed as Homo sapiens) [SEQ ID NO: 118]
Total of positive patients over peptides sharing at least 8 amino acids with the polypeptide [2]: Total = 9
SUM of T-cell responses to peptides embedded in the polypeptide ([2]; Vaccination DC (n = 3)): 4
SUM of T-cell responses to peptides embedded in the polypeptide ([2]; Vaccination GV1001 (n = 4)): 5
SUM of T-cell responses to peptides embedded in the polypeptide [2, 8]: 9

RRPGLLGASVLGLD (listed as Homo sapiens) [SEQ ID NO: 23]
HLA Class II allele, T-cell clone recognising the peptide [1]: DQ7, clone 8,10

GLLGASVLGLDDIH (listed as Homo sapiens) [SEQ ID NO: 26]
HLA Class II allele, T-cell clone recognising the peptide [1]: DQ2, clone 52

NYERARRPGLLGAS (listed as Homo sapiens) [SEQ ID NO: 18]
HLA Class II allele, T-cell clone recognising the peptide [1]: p5-clone 109; also recorded: DQ7, clone 8

LESVLNYERARRPG (LFSVLNYERARRPG; listed as Homo sapiens) [SEQ ID NO: 13]
HLA Class II allele, T-cell clone recognising the peptide [1]: p5-clone109

LNYERARRPGLLGD (LNYERARRPGLLGA; listed as Homo sapiens) [SEQ ID NO: 17]
HLA Class II allele, T-cell clone recognising the peptide [1]: p5-clone109

VTGAYDTIPQDRLTE [Conjugate 732]
No. of positive patients [2]: 1
T-cell responses to the individual peptide (patients), counted for SEQ ID NO: 118 ([2]; Vaccination GV1001 (n = 4)): 1
T-cell responses to the individual peptide (patients), counted for SEQ ID NO: 118 [2, 8]: 1

AERLTSRVKALFSVL [p728]
Patients with immune response against the peptide / UV1 mix [3]: 24%
Number of patients that recognised this one peptide only [3]: one
Responding patients / evaluable patients [3]: (12/51)

EAEVRQHREARPALL [Conjugate 713]
No. of positive patients [2]: 4
T-cell responses to the individual peptide (patients), counted for SEQ ID NO: 116 ([2]; Vaccination DC (n = 3)): 1
T-cell responses to the individual peptide (patients), counted for SEQ ID NO: 116 ([2]; Vaccination GV1001 (n = 4)): 3
T-cell responses to the individual peptide (patients), counted for SEQ ID NO: 116 [2, 8]: 4

EARPALLTSRLRFIPK [GV1001, reference compound]
SUM of T-cell responses to peptides embedded in the polypeptide ([2]; Vaccination DC (n = 3)): 5
SUM of T-cell responses to peptides embedded in the polypeptide ([2]; Vaccination GV1001 (n = 4)): 7
SUM of T-cell responses to peptides embedded in the polypeptide [2, 8]: 12
Immunogenicity in HLA-A2/DR1 transgenic mice (conclusion) [4]: marginal immune responses
Peptides above the threshold (T cell responses against individual peptides) [4]: UV 57
Peptide recognition by individual vaccinated mice (ELISpot) [4]: M9 and 12 did not respond to any of the tested peptides; also recorded: M11 demonstrated a marginal immune response against UV57
Vaccinated individuals with induced immune responses (vaccinated individuals): at least 50%

YERARRPGLLGASV (listed as Homo sapiens) [SEQ ID NO: 19]
HLA Class II allele, T-cell clone recognising the peptide [1]: DQ7, clone 8

VLNYERARRPGLIG (VLNYERARRPGLLG; listed as Homo sapiens) [SEQ ID NO: 16]
HLA Class II allele, T-cell clone recognising the peptide [1]: DR7, clone 15, p5-clone109

LKRVQLRELSEAEVRQ [Conjugate 731]
No. of positive patients [2]: 1
T-cell responses to the individual peptide (patients), counted for SEQ ID NO: 116 ([2]; Vaccination GV1001 (n = 4)): 1
T-cell responses to the individual peptide (patients), counted for SEQ ID NO: 116 [2, 8]: 1

SVLNYERARRPGLL (listed as Homo sapiens) [SEQ ID NO: 15]
HLA Class II allele, T-cell clone recognising the peptide [1]: DR7, clone 4, 12, 21, 15, 92,; also recorded: p5-clone109

FSVLNYERARRPGL (listed as Homo sapiens) [SEQ ID NO: 14]
HLA Class II allele, T-cell clone recognising the peptide [1]: p5-clone 109

PQDRLTEVIASIIKP [Conjugate 723]
No. of positive patients [2]: 1
T-cell responses to the individual peptide (patients), counted for SEQ ID NO: 118 ([2]; Vaccination DC (n = 3)): 1
T-cell responses to the individual peptide (patients), counted for SEQ ID NO: 118 [2, 8]: 1

RPALLTSRLRFIPKP [Conjugate 714]
No. of positive patients [2]: 7
T-cell responses to the individual peptide (patients), counted for GV1001 ([2]; Vaccination DC (n = 3)): 3
T-cell responses to the individual peptide (patients), counted for SEQ ID NO: 116 ([2]; Vaccination DC (n = 3)): 3
T-cell responses to the individual peptide (patients), counted for GV1001 ([2]; Vaccination GV1001 (n = 4)): 4
T-cell responses to the individual peptide (patients), counted for SEQ ID NO: 116 ([2]; Vaccination GV1001 (n = 4)): 4
T-cell responses to the individual peptide (patients), counted for GV1001 [2, 8]: 7
T-cell responses to the individual peptide (patients), counted for SEQ ID NO: 116 [2, 8]: 7
